Structures are written as SMILES.

Holding throughout (assay type): ADME, organism-based
The nature of series [1]: Plasma clearance in rat. To be noted: read-out: Clp.
The nature of series [2]: Volume distribution in rat. To be noted: in vivo.
Series [3] can be described thus: Half-life in rat. As to conditions: in vivo.
The nature of series [4]: Oral bioavailability in rat. As to conditions: in vivo.
Series [5] in a line: Area under curve was determined in rat after PO administration. Set-up: concentration or dose not given beside the values. As to conditions: in vivo.

A word on the Vd: it is the apparent volume that relates the amount in the body to the concentration in plasma or blood. The half-life is how long it takes for the measured level to halve. Broadly, the bioavailability is dose-corrected exposure relative to a reference, in per cent. Usually AUC stands for the area under the concentration-time curve, a measure of exposure. For the compound `O=C1NCc2c(-c3ccc(F)cc3Cl)cc(C3CCN(CC4CCC4)CC3)cc2N1c1c(Cl)cccc1Cl`, the clearance in series [1] was 24.2 mL/min/kg. Also, in series [2], the Vd was 2.5 L/kg. The compound also showed a half-life in series [3] of 1.6 h. Also, the bioavailability in series [4] amounted to 11.6%. Also, the AUC in series [5] worked out at 0.14 µM·h.
Taken in the same sequence, the figures for `CC(C)(C)N1CCC(c2cc(-c3ccc(F)cc3Cl)c3c(c2)N(c2c(Cl)cccc2Cl)C(=O)NC3)CC1` were 35.2 mL/min/kg, 6 L/kg, 2.2 h, 67.7% and 0.58 µM·h.
Taken in the same sequence, the figures for `CC(C1CC1)N1CCC(c2cc(-c3ccc(F)cc3Cl)c3c(c2)N(c2c(Cl)cccc2Cl)C(=O)NC3)CC1` (configuration not stated) were 31.1 mL/min/kg, 4.7 L/kg, 2 h, 38% and 0.36 µM·h.
Taken in the same sequence, the figures for `O=C1NCc2c(-c3ccc(F)cc3F)cc(C3CCNCC3)cc2N1c1c(Cl)cccc1Cl` were 58.6 mL/min/kg, 13.6 L/kg, 3.3 h, 4.3% and 0.02 µM·h.
`O=C(c1cc(-c2ccc(F)cc2F)c2c(c1)N(c1c(Cl)cccc1Cl)C(=O)NC2)N1CCNCC1`: in series [1], the clearance is 94.7 mL/min/kg. The compound also yielded a distribution volume (Vd) in series [2] of 12.8 L/kg. In series [3], the half-life is 2.3 h. This compound also gave a bioavailability in series [4] of 1.5%.
In the case of `O=C1NCc2c(-c3ccc(F)cc3Cl)cc(CN3CCNCC3)cc2N1c1c(Cl)cccc1Cl`, the clearance in series [1] was determined as 140 mL/min/kg. The compound further showed a Vd in series [2] of 18.6 L/kg. Also, the half-life in series [3] is 2.8 h. The compound further had a bioavailability in series [4] of 15.7%. In addition, the AUC in series [5] amounted to 0.04 µM·h.
Take `CC(C)N1CCC(c2cc(-c3ccc(F)cc3Cl)c3c(c2)N(c2c(Cl)cccc2Cl)C(=O)NC3)CC1`: in series [1], the clearance turned out to be 84.8 mL/min/kg. The compound further yielded a Vd in series [2] of 12.2 L/kg. In series [3], this compound gave a half-life of 1.9 h. Also, the bioavailability in series [4] stood at 16%. The compound also had an AUC in series [5] of 0.06 µM·h.
Regarding `O=C1NCc2c(-c3ccc(F)cc3Cl)cc(C3CCNCC3)cc2N1c1c(Cl)cccc1Cl`, the clearance in series [1] is 72.3 mL/min/kg. This compound yielded a Vd in series [2] of 7.8 L/kg. Besides, in series [3], the half-life was 2 h. The bioavailability in series [4] was determined as 0%.
Regarding `O=C1NCc2c(-c3ccc(F)cc3Cl)cc(C3CCN(CC4CC4)CC3)cc2N1c1c(Cl)cccc1Cl`, in series [1], the clearance amounted to 50.9 mL/min/kg. In series [2], the distribution volume (Vd) was 6.3 L/kg. Moreover, the half-life in series [3] was 1.9 h. In addition, the bioavailability in series [4] is 22.6%. In series [5], the area under the curve (AUC) was determined as 0.15 µM·h.
Taken in the same sequence, the figures for `O=C1NCc2c(-c3ccc(F)cc3Cl)cc(C3CCN(C4CCC4)CC3)cc2N1c1c(Cl)cccc1Cl` were 53.7 mL/min/kg, 6.6 L/kg, 1.7 h, 24.7% and 0.14 µM·h.
Taken in the same sequence, the figures for `O=C1NCc2c(-c3ccccc3Cl)cc(OC3CCNCC3)cc2N1c1c(Cl)cccc1Cl` were 116 mL/min/kg, 21 L/kg, 3 h, 6.3% and 0.02 µM·h.
In the case of `CCN1CCC(c2cc(-c3ccc(F)cc3Cl)c3c(c2)N(c2c(Cl)cccc2Cl)C(=O)NC3)CC1`, the clearance in series [1] turned out to be 56.3 mL/min/kg. Moreover, the volume of distribution (Vd) in series [2] was 7.5 L/kg. The compound also showed a half-life in series [3] of 2.2 h. The compound further came in with a bioavailability in series [4] of 20%. The compound also had an exposure (AUC) in series [5] of 0.11 µM·h.
Regarding `O=C1NCc2c(-c3ccccc3Cl)cc(N3CCNCC3)cc2N1c1c(Cl)cccc1Cl`, the clearance in series [1] came out at 34.4 mL/min/kg. This compound also returned a Vd in series [2] of 4.3 L/kg. This compound had a half-life in series [3] of 1.6 h. This compound also returned a bioavailability in series [4] of 22.7%. Further, the AUC in series [5] amounted to 0.22 µM·h.
Taken in the same sequence, the figures for `O=C1NCc2c(-c3ccc(F)cc3Cl)cc(C3CCN(C4CC4)CC3)cc2N1c1c(Cl)cccc1Cl` were 51.7 mL/min/kg, 8.1 L/kg, 2.5 h, 59.3% and 0.39 µM·h.
Taken in the same sequence, the figures for `CN1CCC(c2cc(-c3ccc(F)cc3Cl)c3c(c2)N(c2c(Cl)cccc2Cl)C(=O)NC3)CC1` were 49.8 mL/min/kg, 5.3 L/kg, 1.5 h, 9.2% and 0.06 µM·h.
Turning to `O=C1NCc2c(-c3ccccc3Cl)cc(C3CCNCC3)cc2N1c1c(Cl)cccc1Cl`, the clearance in series [1] was found to be 181 mL/min/kg. The distribution volume (Vd) in series [2] turned out to be 21.4 L/kg. The compound further showed a half-life in series [3] of 2.5 h. For the same compound, the bioavailability in series [4] was 0%.

For the origin of these results see ChEMBL document CHEMBL1136271, “Design and synthesis of potent, orally bioavailable dihydroquinazolinone inhibitors of p38 MAP kinase” (Bioorg Med Chem Lett, 2003).
